We go through 4 compounds from PubChem BioAssay (NCI).

Some test systems named below: SF-268 CNS; M14 melanoma; HL-60(TB) leukemia; KM12 colon; RPMI-8226 leukemia; HS 578T breast; NCI-H522 lung; SNB-19 CNS; HOP-62 NSCLC; UO-31 renal; BT-549 breast; MDA-MB-435; NCI-H460 lung; T-47D breast; RXF 393 renal; MOLT-4 leukemia; OVCAR-4 ovarian; OVCAR-3 ovarian.
Experiment in all cases: inhibition of tumour cell growth, NCI panel, 48 h

Structures are written as SMILES.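 Method: 48-hour compound exposure of cells in 96-well plates, five concentrations, linear interpolation of endpoints. Definition used: TGI = concentration required for complete inhibition of growth.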

For `C=CCOc1ccccc1N=N/C(C#N)=N\Nc1ccccc1OCC=C`, the TGI in the assay with SF-268 CNS, in the assay with M14 melanoma, in the assay on HL-60(TB) leukemia, in the assay on KM12 colon, with RPMI-8226 leukemia and in the assay on HS 578T breast was more than 100 µM each time. The TGI in the assay with NCI-H522 lung, with SNB-19 CNS, in the assay with HOP-62 NSCLC, with UO-31 renal, in the assay with BT-549 breast and in the assay with MDA-MB-435 was more than 100 µM throughout. Further, the TGI with NCI-H460 lung, with T-47D breast, in the assay on RXF 393 renal, in the assay on MOLT-4 leukemia, in the assay with OVCAR-4 ovarian and in the assay on OVCAR-3 ovarian was more than 100 µM throughout.
Turning to `CC(=O)N1CCc2c([nH]c3ccc(Br)cc23)C1c1ccccc1` (configuration not stated), the TGI in the assay with SF-268 CNS, in the assay on M14 melanoma, in the assay with HL-60(TB) leukemia, in the assay on KM12 colon, with RPMI-8226 leukemia and in the assay with HS 578T breast was more than 10 µM each time. Also, the TGI in the assay with NCI-H522 lung, in the assay with SNB-19 CNS, in the assay on HOP-62 NSCLC, with UO-31 renal, with BT-549 breast and in the assay on MDA-MB-435 was more than 10 µM in each case. For the same compound, the TGI in the assay on NCI-H460 lung, in the assay with T-47D breast, with RXF 393 renal, in the assay with MOLT-4 leukemia, with OVCAR-4 ovarian and with OVCAR-3 ovarian was more than 10 µM in each case.
With `O=C(/C=C/c1ccsc1)c1ccco1`, the TGI with SF-268 CNS was 38.5 µM; in the assay with M14 melanoma, 24.2 µM; in the assay on HL-60(TB) leukemia, 24 µM; with KM12 colon, more than 22.2 µM; in the assay with RPMI-8226 leukemia, 16.1 µM; with HS 578T breast, 29.6 µM. Also, the TGI was 4.67 µM in the assay with NCI-H522 lung; 28.8 µM in the assay on SNB-19 CNS; 28.1 µM in the assay on HOP-62 NSCLC; 22.7 µM with UO-31 renal; 33.2 µM in the assay with BT-549 breast; more than 50.3 µM in the assay with MDA-MB-435. The TGI in the assay with NCI-H460 lung is 33.4 µM; in the assay with T-47D breast it was 27.2 µM; in the assay on RXF 393 renal, 27 µM; in the assay with MOLT-4 leukemia, 36 µM; in the assay with OVCAR-4 ovarian, more than 37.2 µM; with OVCAR-3 ovarian it was 26.9 µM.
Consider `O=C1C(F)=CC(COC(c2ccccc2)(c2ccccc2)c2ccccc2)OC1n1cc(F)c(=O)[nH]c1=O` (configuration not stated), for which the TGI was 12.6 µM in the assay with SF-268 CNS; 5.03 µM in the assay with M14 melanoma; 10.2 µM in the assay on HL-60(TB) leukemia; 7.72 µM in the assay with KM12 colon; 1.31 µM with RPMI-8226 leukemia; more than 45 µM with HS 578T breast. Besides, the TGI with NCI-H522 lung worked out at 3.1 µM; with SNB-19 CNS, 12.8 µM; in the assay on HOP-62 NSCLC, 11.6 µM; in the assay with UO-31 renal, 5.61 µM; in the assay on BT-549 breast, 4.38 µM; with MDA-MB-435 it was 3.18 µM. For the same compound, the TGI with NCI-H460 lung is 7.68 µM; in the assay on T-47D breast it was more than 28.6 µM; in the assay with RXF 393 renal, 4.11 µM; in the assay on MOLT-4 leukemia, 4.81 µM; in the assay on OVCAR-4 ovarian, 14.4 µM; in the assay on OVCAR-3 ovarian it was 3.21 µM.
